For three compounds, EC50 results are on record in patent US10604555B2, “GIP derivatives and uses thereof” (priority 2018, dated 2020).

*1 amine or outer side, *2 acyl side, *3 side chain or, on linkers, in order; H or OH if unused. Where a SMILES comes first, the peptide text is derived from it. Side-chain parts run from the residue outwards. [ ]: non-standard residue; d: D form. The star is where a group is joined. C18 diacid = O=C(O)CCCCCCCCCCCCCCCCC(=O)*; γGlu = O=C(O)[C@H](CCC(=O)[*:2])N[*:1]; Nle = CCCC[C@H](N)C(=O)O; AEEA = NCCOCCOCC(=O)O; Aib = CC(C)(N)C(=O)O

The experiment deals with T1, human GIP receptor (Homo sapiens, UniProt P48546).
T1 construct: expressed in transfected cells; host or cells: BHK (parent line BHKTS13), BHK CRE luc2P hGIPR clone #5
T1 sequence (P48546 22-466): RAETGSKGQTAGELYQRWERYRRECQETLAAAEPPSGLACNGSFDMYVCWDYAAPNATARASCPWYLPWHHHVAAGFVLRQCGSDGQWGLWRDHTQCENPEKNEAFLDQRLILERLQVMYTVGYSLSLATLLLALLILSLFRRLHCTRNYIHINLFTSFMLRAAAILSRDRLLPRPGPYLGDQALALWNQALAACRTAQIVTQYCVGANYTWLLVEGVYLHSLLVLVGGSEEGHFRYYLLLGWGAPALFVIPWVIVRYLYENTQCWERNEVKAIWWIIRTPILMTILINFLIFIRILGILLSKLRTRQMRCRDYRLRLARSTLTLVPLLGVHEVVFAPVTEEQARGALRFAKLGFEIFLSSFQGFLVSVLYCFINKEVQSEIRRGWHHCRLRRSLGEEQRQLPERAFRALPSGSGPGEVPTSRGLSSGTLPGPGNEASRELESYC
The experiment can be described thus: In vitro potency (CRE luciferase; whole cells), BHK CRE luc2P hGIPR. The format is cell-based. The note with it: 0.2% HSA. The method, then:
In Vitro Potency (CRE Luciferase; Whole Cells)
The in vitro potency is the measure of human GIP, GLP-1 or glucagon receptor activation, respectively, in a whole cell assay.
In vitro potency was determined by measuring the response of the human GIP, GLP-1 or glucagon receptor in a reporter gene assay in individual cell lines. […] When the respective receptor is activated it results in the production of cAMP, which in turn results in the luciferase protein being expressed. When assay incubation is completed the luciferase substrate (luciferin) is added and the enzyme converts luciferin to oxyluciferin to produce bioluminescence. The luminescence is measured as the readout for the assay.
The cells were derived from a clone containing the CRE luciferase element and were established by further transfection with the respective receptor to obtain the current clone.
The cells were cultured at 5% CO2 in Cell Culture Medium. They were aliquoted and stored in liquid nitrogen. The cells were kept in passage and were seeded out the day before each assay.
The Assay Buffer consisted of 1% ovalbumin and 0.1% Pluronic F-68 in Assay Medium with the addition of human serum albumin at twice the indicated concentrations.
1) Cells were plated at 5000 cells/well and incubated overnight.
2) Cells were washed three times in PBS.
3) Assay Medium (50 μl aliquot) with or without serum albumin was added to each well in the assay plate.
4) Stocks of the test compounds and reference compounds were diluted to a concentration of 0.2 μM in Assay Buffer. […] 8) The cells were washed three times with PBS plus some liquid in each well. 9) A 100 μl aliquot of steadylite plus reagent was added to each well of the assay plate (reagent was light sensitive). 10) Each assay plate was covered with aluminum foil to protect it from light and shaken for 30 min at room temperature. 11) Each assay plate was read in a microtiter plate reader. Calculations and Results
The data from the microtiter plate reader was transferred to GraphPad Prism software. The software performs a non-linear regression (log(agonist) vs response).
A minimum of two replicates was measured for each sample. The reported values are averages of the replicates.
As a reminder, the EC50 is the concentration needed to bring the measured effect to its halfway point. The low end stands for greater potency, the high end for weaker potency. Compound `CC[C@H](C)[C@H](NC(=O)[C@H](CO)NC(=O)[C@H](Cc1ccc(O)cc1)NC(=O)[C@H](CC(=O)O)NC(=O)[C@H](CO)NC(=O)[C@@H](NC(=O)[C@H](Cc1ccccc1)NC(=O)[C@@H](NC(=O)CNC(=O)[C@H](CCC(=O)O)NC(=O)[C@H](C)NC(=O)[C@@H](Cc1ccc(O)cc1)NC(C)=O)[C@@H](C)O)[C@@H](C)CC)C(=O)N[C@@H](C)C(=O)N[C@@H](CC(=O)O)C(=O)N[C@@H](CC(=O)O)C(=O)N[C@@H](CCCCN)C(=O)N[C@H](C(=O)N[C@@H](CCCNC(=N)N)C(=O)N[C@@H](CCC(N)=O)C(=O)N[C@@H](CCC(=O)O)C(=O)N[C@@H](CC(=O)O)C(=O)N[C@@H](Cc1ccccc1)C(=O)N[C@H](C(=O)N[C@@H](CCCCNC(=O)COCCOCCNC(=O)COCCOCCNC(=O)CC[C@H](NC(=O)CCCCCCCCCCCCCCCCC(=O)O)C(=O)O)C(=O)N[C@@H](Cc1c[nH]c2ccccc12)C(=O)N[C@@H](CC(C)C)C(=O)N[C@@H](CC(C)C)C(=O)N[C@@H](C)C(=O)N[C@@H](CCC(N)=O)C(=O)N[C@@H](CCCCN)C(=O)NCC(=O)O)C(C)C)[C@@H](C)CC` [Compound 19, N{1}-acetyl,N{Epsilon-24}-[2-[2-[2-[[2-[2-[2-[[(4S)-4-carboxy-4-(17-carboxyheptadecanoylamino)butanoyl]amino]ethoxy]ethoxy]acetyl]amino]ethoxy]ethoxy]acetyl]-[D-Tyr1,Asp14,Arg18,Glu20, Lys24]-hGIP(1-31)] (Ac-[dY]AEGTFISDYSIADDKIRQEDFVK([AEEA-AEEA-γGlu-C18 diacid])WLLAQKG-OH; C-terminus assumed) showed an EC50 of 0.0915 nM.
The compound `CCCC[C@H](NC(=O)[C@H](C)NC(=O)[C@@H](NC(=O)[C@H](CO)NC(=O)[C@H](Cc1ccc(O)cc1)NC(=O)[C@H](CC(=O)O)NC(=O)[C@H](CO)NC(=O)[C@@H](NC(=O)[C@H](Cc1ccccc1)NC(=O)[C@@H](NC(=O)CNC(=O)[C@H](CCC(=O)O)NC(=O)C(C)(C)NC(=O)[C@@H](N)Cc1ccc(O)cc1)[C@@H](C)O)[C@@H](C)CC)[C@@H](C)CC)C(=O)N[C@@H](CC(=O)O)C(=O)N[C@@H](CCCCN)C(=O)N[C@H](C(=O)N[C@@H](Cc1c[nH]cn1)C(=O)N[C@@H](CCC(N)=O)C(=O)N[C@@H](CCC(=O)O)C(=O)N[C@@H](CC(=O)O)C(=O)N[C@@H](Cc1ccccc1)C(=O)N[C@H](C(=O)N[C@@H](CCCCNC(=O)CC[C@H](NC(=O)CC[C@H](NC(=O)CC[C@H](NC(=O)CC[C@H](NC(=O)CCCCCCCCCCCCCCCCC(=O)O)C(=O)O)C(=O)O)C(=O)O)C(=O)O)C(=O)N[C@@H](Cc1c[nH]c2ccccc12)C(=O)N[C@@H](CC(C)C)C(=O)N[C@@H](CC(C)C)C(=O)N[C@@H](C)C(=O)N[C@@H](CCC(N)=O)C(=O)N[C@@H](CCCCN)C(=O)NCC(=O)O)C(C)C)[C@@H](C)CC` [Compound 20, N{Epsilon-24}-[(4S)-4-carboxy-4-[[(4S)-4-carboxy-4-[[(4S)-4-carboxy-4-[[(4S)-4-carboxy-4-(17-carboxyheptadecanoylamino)butanoyl]amino]butanoyl]amino]butanoyl]-amino]butanoyl]-[Aib2,Nle14,Glu20,Lys24]-hGIP(1-31)] (H-Y[Aib]EGTFISDYSIA[Nle]DKIHQEDFVK([γGlu-γGlu-γGlu-γGlu-C18 diacid])WLLAQKG-OH; N-terminus and C-terminus assumed) had an EC50 of 0.158 nM. Against the preceding compound, the EC50 is about 1.7-fold higher.
For `CCCC[C@H](NC(=O)[C@H](C)NC(=O)[C@@H](NC(=O)[C@H](CO)NC(=O)[C@H](Cc1ccc(O)cc1)NC(=O)[C@H](CC(=O)O)NC(=O)[C@H](CO)NC(=O)[C@@H](NC(=O)[C@H](Cc1ccccc1)NC(=O)[C@@H](NC(=O)CNC(=O)[C@H](CCC(=O)O)NC(=O)C(C)(C)NC(=O)[C@@H](N)Cc1ccc(O)cc1)[C@@H](C)O)[C@@H](C)CC)[C@@H](C)CC)C(=O)N[C@@H](CC(=O)O)C(=O)N[C@@H](CCCCN)C(=O)N[C@H](C(=O)N[C@@H](CCCNC(=N)N)C(=O)N[C@@H](CCC(N)=O)C(=O)N[C@@H](CCC(N)=O)C(=O)N[C@@H](CC(=O)O)C(=O)N[C@@H](Cc1ccccc1)C(=O)N[C@H](C(=O)N[C@@H](CCCCNC(=O)CC[C@H](NC(=O)CC[C@H](NC(=O)CC[C@H](NC(=O)CCCCCCCCCCCCCCCCC(=O)O)C(=O)O)C(=O)O)C(=O)O)C(=O)N[C@@H](Cc1c[nH]c2ccccc12)C(=O)N[C@@H](CC(C)C)C(=O)N[C@@H](CC(C)C)C(=O)N[C@@H](C)C(=O)N[C@@H](CCC(N)=O)C(=O)N[C@@H](CCCCN)C(=O)NCC(=O)N[C@@H](CCCCN)C(=O)N[C@@H](CCC(=O)O)C(=O)N[C@@H](CC(N)=O)C(=O)N[C@@H](CC(=O)O)C(=O)N[C@@H](Cc1c[nH]c2ccccc12)C(=O)N[C@@H](CCCCN)C(=O)N[C@@H](Cc1c[nH]cn1)C(=O)N[C@@H](CC(N)=O)C(=O)N[C@H](C(=O)N[C@H](C(=O)N[C@@H](CCC(N)=O)C(=O)O)[C@@H](C)O)[C@@H](C)CC)C(C)C)[C@@H](C)CC` [Compound 34, N{Epsilon-24}-[(4S)-4-carboxy-4-[[(4S)-4-carboxy-4-[[(4S)-4-carboxy-4-(17-carboxyheptadecanoylamino)butanoyl]amino]butanoyl]amino]butanoyl]-[Aib2,Nle14,Arg18,Lys24,Glu33]-hGIP] the value was 0.0202 nM.
